Laboratory results from US20050026949A1, “Methods of therapeutic treatment using amounts of retinoids without regard to body weight” (Allergan, Inc., priority 2003, published 2005).
Blank lines part the entries; values can stand above or below the molecule they belong to.

Assays:
sebaceous glands = settings: published reports (Geiger); cited from earlier work
[1] = system: patients in the studies of isotretinoin; settings: published data (N = 525); cited from earlier work
[2] = in vivo; cited from earlier work
[3] = cited from earlier work
[4] = oral, cited from earlier work; for bioavailability in the presence of food: Colburn et al
RARs = assay: Activation of RARs; type: cell-based
RAR-A = target: T1, RAR-A (Homo sapiens, UniProt P10276); assay: RAR-alpha activity; type: cell-based
T1 sequence (P10276 1-462): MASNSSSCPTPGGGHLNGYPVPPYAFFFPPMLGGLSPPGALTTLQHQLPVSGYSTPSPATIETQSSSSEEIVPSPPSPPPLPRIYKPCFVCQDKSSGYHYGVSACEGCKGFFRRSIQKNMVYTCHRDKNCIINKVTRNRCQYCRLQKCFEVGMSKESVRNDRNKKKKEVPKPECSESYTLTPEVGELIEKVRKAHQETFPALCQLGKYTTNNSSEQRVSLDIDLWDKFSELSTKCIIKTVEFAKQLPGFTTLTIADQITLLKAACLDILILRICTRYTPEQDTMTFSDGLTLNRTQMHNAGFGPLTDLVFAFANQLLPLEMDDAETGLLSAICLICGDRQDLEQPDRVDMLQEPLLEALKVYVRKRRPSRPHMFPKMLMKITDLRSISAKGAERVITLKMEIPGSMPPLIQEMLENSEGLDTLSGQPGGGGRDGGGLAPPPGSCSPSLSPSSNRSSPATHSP

[5] = Food effect on pharmacokinetics of tazarotenic acid after oral tazarotene (Example 1); type: in vivo, human; settings: 6.3 mg oral tazarotene
Experimental: For the purposes of this application, the bioavailability of a drug may be based on the human pharmokinetic parameters of maximum blood concentration (Cmax) and Area under the blood concentration-time curve (AUC).
(§1) The LC-MS/MS test for simultaneous detection of tazarotene and tazarotenic acid may be run as follows. One ml of plasma (EDTA-treated) is diluted with 1.0 ml of water. Diluted plasma is extracted using solid phase extraction (SPE) on a C18 cartridge. The eluate is evaporated, reconstituted in a water/methanol-based mobile phase, and injected onto a 4.6×50 mm, 3 μm pore size C-8 reverse phase high pressure liquid chromatography (HPLC) column (Agilent, Wilmington, Del.). Compounds are gradient-eluted at 1.2 mL/min and detected using an API 3000 triple quadrupole mass spectrometer with an Atmospheric Pressure Chemical Ionization (APCI) source (PE-Sciex, Concord, Ontario, Canada). Molecular reaction monitoring enhances the sensitivity and selectivity of this assay by collisionally dissociating the protonated molecules for the analyte and an internal standard thereby forming the product ions. The specific precursor-product ion pair monitored are m/z 352→324 for tazarotene, m/z 359→331 for the tazarotene internal standard, m/z 324→294 for tazarotenic acid, and m/z 331+298 for the tazarotenic acid internal standard. The lower limit of quantitation at assay range tested is 0.1 ng/mL, with a coefficient of variation and deviation from nominal concentration of <15%.

[6] = Body weight effect on plasma tazarotenic acid Cmax and AUC (Example 7); type: in vivo, human; settings: 6 mg tazarotene daily, day 9
Experimental: as §1, with “<15%. […]” for “<15%.”

[7] = topical administration of tazarotene; cited from earlier work
RXRs = assay: Activation of RXRs; type: cell-based
[8] = system: patients in the studies of acitretin; settings: published data (N = 525); cited from earlier work

SMILES: CC1=C(/C=C/C(C)=C/C=C/C(C)=C\C(=O)O)C(C)(C)CCC1 [Isotretinoin, isotretinoin]
decrease in sebum secretion rate (sebaceous glands): about 90% | Cheilitis [1]: 472 (90.2) NUMBER OF (%) OF PATIENTS | Conjunctivitis [1]: 201 (38.4) NUMBER OF (%) OF PATIENTS | Desquamation central face/Desquamation [1]: 187 (35.8) NUMBER OF (%) OF PATIENTS | Dry Skin [1]: 172 (32.9) NUMBER OF (%) OF PATIENTS | Dry nose [1]: 136 (26.0) NUMBER OF (%) OF PATIENTS | Epistaxis [1]: 121 (23.1) NUMBER OF (%) OF PATIENTS | Fingertip peeling/Desquamation [1]: 63 (12.0) NUMBER OF (%) OF PATIENTS | Headache [1]: 44 (8.4) NUMBER OF (%) OF PATIENTS | Irritation of eyes [1]: 85 (16.3) NUMBER OF (%) OF PATIENTS | Pruritus [1]: 127 (24.3) NUMBER OF (%) OF PATIENTS | Red Scaly face/Desquamation [1]: 54 (10.3) NUMBER OF (%) OF PATIENTS | Skin fragility/Skin disorder [1]: 164 (31.4) NUMBER OF (%) OF PATIENTS | bioavailability in relation to body weight [2]: increased with a reduced body weight | effect on blood concentrations of coadministered contraceptive components ([3]; coadministered contraceptive tablets): decreases blood concentrations of both ethinyl estradiol and norethindrone | bioavailability in the presence of food [4]: bioavailability is increased in the presence of food | total dose needed to reach the same peak blood concentration in the fasted state as following a high fat meal [4]: more than doubled

SMILES: CCOC(=O)/C=C(C)/C=C/C=C(C)/C=C/c1c(C)cc(OC)c(C)c1C [etretinate]
bioavailability in relation to body weight [2]: increased with a reduced body weight

RAR-A activity (RAR-A): minimal | 90% CI ratio of Cmax values ([5]; fed vs fasted): partially outside the 80-125% boundary | 90% confidence intervals of AUC ratios (test/reference) ([5]; fed vs fasted): completely within the 80-125% boundary | average ratio of Cmax (test/reference) ([5]; fed vs fasted, Day 0): 1.00 | average ratio of Cmax (test/reference) ([5]; fed vs fasted, Day 9): 0.829 | effect of high-fat meal on bioavailability or pharmacokinetics of tazarotenic acid ([5]; within 30 minutes after high fat breakfast vs after 8-10 hour fast, single and multiple dose, healthy subjects): does not substantially affect
SMILES: CC1(C)CCSc2ccc(C#Cc3ccc(C(=O)O)cn3)cc21 [tazarotenic acid]
receptor specificity and selectivity (RARs): specificity for the RARs and selectivity for RAR-β and RAR-γ | correlation of Cmax or AUC with body weight [6]: no correlation between either Cmax or AUC and body weight | maximum blood concentration of tazarotenic acid [7]: less than 30 ng/ml | activation of RXRs (RXRs): does not activate

SMILES: CC1(C)CC[S+]([O-])c2ccc(C#Cc3ccc(C(=O)O)cn3)cc21 (stereo not drawn) [AGN 190844]
activation of RARs (RARs): does not activate | activation of RXRs (RXRs): does not activate

SMILES: COc1cc(C)c(/C=C/C(C)=C/C=C/C(C)=C/C(=O)O)c(C)c1C [Acitretin, acitretin]
bioavailability in relation to body weight [2]: increased with a reduced body weight | effect on contraceptive effect of microdosed progestin preparations ([3]; in vivo): interferes with the contraceptive effect | Alopecia [8]: 319 (60.8) NUMBER OF (%) OF PATIENTS | Arthralgia [8]: 102 (19.4) NUMBER OF (%) OF PATIENTS | Atrophy of skin [8]: 64 (12.2) NUMBER OF (%) OF PATIENTS | Back pain [8]: 41 (7.8) NUMBER OF (%) OF PATIENTS | Cheilitis [8]: 429 (81.7) NUMBER OF (%) OF PATIENTS | Dry Skin [8]: 174 (33.1) NUMBER OF (%) OF PATIENTS | Dry mouth/Oral dryness [8]: 76 (14.5) NUMBER OF (%) OF PATIENTS | Epistaxis [8]: 61 (11.6) NUMBER OF (%) OF PATIENTS | Erythematous rash/Erythema [8]: 57 (10.9) NUMBER OF (%) OF PATIENTS | Hyperesthesia [8]: 66 (12.6) NUMBER OF (%) OF PATIENTS | Nail Disorder [8]: 170 (32.4) NUMBER OF (%) OF PATIENTS | Paresthesia [8]: 56 (10.7) NUMBER OF (%) OF PATIENTS | Paronychia/Nail disorder [8]: 66 (12.6) NUMBER OF (%) OF PATIENTS | Pruritus [8]: 157 (29.9) NUMBER OF (%) OF PATIENTS | Rhinitis [8]: 153 (29.1) NUMBER OF (%) OF PATIENTS | Rigors/Chills [8]: 67 (12.8) NUMBER OF (%) OF PATIENTS | Skin peeling/Desquamation [8]: 345 (65.7) NUMBER OF (%) OF PATIENTS | Sticky skin/Skin disorder [8]: 129 (24.6) NUMBER OF (%) OF PATIENTS | Xerophthalmia/Eye disorder [8]: 112 (21.3) NUMBER OF (%) OF PATIENTS | bioavailability in the presence of food [4]: bioavailability is increased in the presence of food

SMILES: C=C(c1ccc(C(=O)O)cc1)c1cc2c(cc1C)C(C)(C)CCC2(C)C [bexarotene]
effect on plasma concentration of coadministered tamoxifen ([3]; coadministration with tamoxifen): reduced plasma concentration of tamoxifen | bioavailability in the presence of food [4]: bioavailability is increased in the presence of food
